The source of these data is ChEMBL document CHEMBL4814075, “Novel Thienopyrimidines as Acetyl-CoA Carboxylase Inhibitors for Treating Liver Diseases” (ACS Med Chem Lett, 2021).

SMILES strings stand for the structures.

The assay addresses Acetyl-CoA carboxylase 1 (Homo sapiens, UniProt Q13085). The assay is described as follows: Inhibition of ACC1 in human HepG2 cells assessed as lipid content using 13C-labelled acetate as substrate incubated for 1 hr followed by substrate addition and measured after 24 hrs by QTOF mass spectrometer. Format: cell-based.

As to `Cc1c(-n2nccn2)sc2c1c(=O)n(C1(C(=O)NS(=O)(=O)C3(C)CC3)CC1)c(=O)n2C[C@H](O[C@@H]1C[C@H]2CC[C@@H](C1)O2)c1cc(F)ccc1OC(F)F`, the 50% effective concentration (EC50) stood at 0.9 nM.

On to `COc1ccccc1[C@H](Cn1c(=O)n([C@H](C)C(=O)NS(=O)(=O)C2(C)CC2)c(=O)c2c(C)c(-c3ncco3)sc21)O[C@@H]1C[C@H]2CC[C@@H](C1)O2`, for which the EC50 is 1 nM.

Take `COc1ccccc1[C@H](Cn1c(=O)n(C2(C(=O)NS(=O)(=O)C3(C)CC3)CC2)c(=O)c2c(C)c(-n3nccn3)sc21)O[C@@H]1C[C@H]2CC[C@@H](C1)O2`: the EC50 was 1 nM.

On to `COc1ccccc1[C@H](Cn1c(=O)n(C(C)(C)C(=O)NS(=O)(=O)C2(C)CC2)c(=O)c2c(C)c(-n3nccn3)sc21)O[C@@H]1C[C@H]2CC[C@@H](C1)O2`, for which the EC50 came out at 1 nM.

Turning to `COc1ccccc1[C@H](Cn1c(=O)n(C(C)(C)C(=O)NS(=O)(=O)C2(C)CC2)c(=O)c2c(C)c(-c3ncco3)sc21)O[C@@H]1C[C@H]2CC[C@@H](C1)O2`, the 50% effective concentration (EC50) was found to be 1 nM.

Consider `COc1ccc(F)cc1[C@H](Cn1c(=O)n(C(C)(C)C(=O)NS(=O)(=O)C2(C)CC2)c(=O)c2c(C)c(-n3nccn3)sc21)O[C@@H]1C[C@H]2CC[C@@H](C1)O2`, for which the EC50 stood at 0.3 nM.
